Data on 11 compounds can be found in ChEMBL document CHEMBL1201862, “PubChem BioAssay data set” (2004).

The structures appear in SMILES notation.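 Exposure lasted 48 hours, with cells grown in 96-well plates and compounds tested at five concentrations. Abbreviation: GI50, concentration required for 50% inhibition of growth.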 Active and inactive are the calls of the source. Rule as the data show it: active = GI50 up to about 1.1 µM and inactive = higher. *1 amine or outer side, *2 acyl side, *3 side chain or, on linkers, in order; H or OH if unused. Where a SMILES comes first, the peptide text is derived from it. The star is where a group is joined. γGlu = O=C(O)[CH](CCC(=O)[*:2])N[*:1]; NHOH = ON*

Among the test systems are MDA-MB-435; COLO 205; UO-31; SK-MEL-5; IGROV-1; PC-3; T47D; RPMI-8226; HT-29; MDA-MB-231; SK-MEL-2; 786-0; SK-MEL-28; OVCAR-8; CAKI-1; SR; K562; LOX IMVI; RXF 393.
Common to all, as to test: growth of human tumour cells (NCI), 48 h

For the compound `C=CC[C@@]1(C(=O)OC)[C@H](Sc2ccccc2)C1(C)C`, the GI50 in the assay with MDA-MB-435 was 30.9 µM (inactive); in the assay on COLO 205, 33.3 µM (inactive); in the assay on UO-31 it was 83 µM (inactive); with SK-MEL-5, 18.7 µM (inactive); in the assay on IGROV-1, 26.9 µM (inactive); in the assay on PC-3, 47.3 µM (inactive). Further, the GI50 with T47D was > 100 µM (inactive); in the assay with RPMI-8226, 10.7 µM (inactive); in the assay on HT-29, 24.9 µM (inactive); with MDA-MB-231, 69 µM (inactive); in the assay with SK-MEL-2 it was 24.2 µM (inactive); with 786-0, 33.4 µM (inactive). The GI50 in the assay with SK-MEL-28 is 78.2 µM (inactive); in the assay on OVCAR-8, 53.8 µM (inactive); with CAKI-1, 74.8 µM (inactive).

On to `Cc1cc(O)c2c(c1O)C(=O)C1=C(C2=O)C(=O)C2C(O)C1C1C(O)CC(O)=C3C(=O)c4c(O)cc(C)c(O)c4C(=O)C321` (stereo unspecified), for which the GI50 in the assay with MDA-MB-435 is 1.36 µM (inactive); in the assay on COLO 205, 0.834 µM (active); in the assay with SK-MEL-5 it was 1.65 µM (inactive); in the assay on SR, 2.36 µM (inactive); in the assay on IGROV-1 it was 2.36 µM (inactive); with PC-3 it was 0.628 µM (active). Moreover, the GI50 was 1.24 µM (inactive) in the assay on T47D; 0.164 µM (active) in the assay with RPMI-8226; 0.555 µM (active) in the assay with HT-29; 2.64 µM (inactive) in the assay with MDA-MB-231; 0.506 µM (active) in the assay on K562; 1.57 µM (inactive) in the assay with LOX IMVI. The GI50 with SK-MEL-2 is 1.73 µM (inactive); in the assay with 786-0, 1.71 µM (inactive); in the assay with SK-MEL-28 it was 1.55 µM (inactive); in the assay with OVCAR-8, 1.06 µM (active); with CAKI-1 it was 1.75 µM (inactive).

`CSc1ccc(Nc2cc(=O)[nH]c(=O)[nH]2)cc1`: the GI50 in the assay with MDA-MB-435, with COLO 205, with UO-31, with SK-MEL-5, with SR and in the assay with PC-3 was > 100 µM (inactive) throughout. In addition, the GI50 with T47D, in the assay with RPMI-8226, with HT-29, in the assay on MDA-MB-231, in the assay with K562 and in the assay with LOX IMVI was > 100 µM (inactive) each time. For the same compound, the GI50 with SK-MEL-2 is > 100 µM (inactive); in the assay with 786-0, > 100 µM (inactive); in the assay on SK-MEL-28 it was > 100 µM (inactive); in the assay with OVCAR-8, 60.4 µM (inactive); in the assay with CAKI-1 it was > 100 µM (inactive).

With `CC(C)(C)c1cc(C(CO)OCCOCCO)cc(C(C)(C)C)c1O` (stereo unspecified), the GI50 in the assay with MDA-MB-435, with COLO 205, in the assay on UO-31, in the assay with SK-MEL-5, in the assay with IGROV-1 and with PC-3 was > 100 µM (inactive) throughout. Also, the GI50 in the assay with T47D, in the assay on RPMI-8226, with HT-29, in the assay on MDA-MB-231, with RXF 393 and with K562 was > 100 µM (inactive) each time. Also, the GI50 in the assay with LOX IMVI, in the assay with SK-MEL-2, in the assay with 786-0, in the assay with SK-MEL-28, in the assay on OVCAR-8 and with CAKI-1 was > 100 µM (inactive) each time.

On to `CC(=O)NC1c2ccccc2C(C)(C)C12CCC1(CC2)OCCO1` (stereo unspecified), for which the GI50 with COLO 205, in the assay with UO-31, with SK-MEL-5, in the assay with SR, with IGROV-1 and in the assay with PC-3 was > 100 µM (inactive) each time. For the same compound, the GI50 was > 100 µM (inactive) in the assay on T47D; > 100 µM (inactive) with RPMI-8226; > 100 µM (inactive) with HT-29; > 100 µM (inactive) in the assay with MDA-MB-231; 37.9 µM (inactive) with RXF 393; > 100 µM (inactive) in the assay with K562. In addition, the GI50 in the assay on LOX IMVI, with SK-MEL-2, in the assay with 786-0, in the assay with SK-MEL-28, in the assay on OVCAR-8 and in the assay on CAKI-1 was > 100 µM (inactive) throughout.

Consider `O=C1/C(=C/c2ccc(Cl)cc2)CCC/C1=C\c1ccc(O)c(CN2CCCCC2)c1`, for which the GI50 in the assay with MDA-MB-435 was 17 µM (inactive); in the assay with COLO 205, 20.3 µM (inactive); in the assay with UO-31, 16.3 µM (inactive); with SK-MEL-5, 15.1 µM (inactive); in the assay on SR, 3.78 µM (inactive); in the assay with IGROV-1, 15.5 µM (inactive). Moreover, the GI50 with PC-3 is 8.91 µM (inactive); with T47D, 19.5 µM (inactive); in the assay on HT-29 it was 3.54 µM (inactive); with MDA-MB-231, 26.9 µM (inactive); in the assay on K562, 9.29 µM (inactive); in the assay on LOX IMVI, 13.1 µM (inactive). In addition, the GI50 was 42.1 µM (inactive) with SK-MEL-2; 15 µM (inactive) in the assay with 786-0; 21 µM (inactive) in the assay with SK-MEL-28; 14.5 µM (inactive) in the assay on OVCAR-8; 18.9 µM (inactive) in the assay on CAKI-1.

For `COc1ccc(C(=O)CCN(C)C)c2ccccc12`, the GI50 in the assay on MDA-MB-435 is 19.5 µM (inactive); with COLO 205, 18.6 µM (inactive); in the assay with UO-31 it was 21.5 µM (inactive); in the assay with SK-MEL-5, > 56.8 µM (inactive); with IGROV-1 it was 19.4 µM (inactive); in the assay with PC-3 it was 17.6 µM (inactive). The GI50 in the assay with T47D was 11.3 µM (inactive); in the assay on RPMI-8226, 0.504 µM (active); in the assay on HT-29, 25.7 µM (inactive); with MDA-MB-231 it was 19.1 µM (inactive); with RXF 393, 21.3 µM (inactive); in the assay with K562, 29.7 µM (inactive). The GI50 is 18.9 µM (inactive) in the assay on LOX IMVI; 19.5 µM (inactive) in the assay on SK-MEL-2; 5.93 µM (inactive) in the assay on 786-0; 24.8 µM (inactive) with SK-MEL-28; 19.5 µM (inactive) in the assay on OVCAR-8; 6.78 µM (inactive) in the assay on CAKI-1.

Consider `CSc1c(C#N)c2n(c3ccccc13)c1ccccc1[n+]2C`, for which the GI50 in the assay on MDA-MB-435 is 20.9 µM (inactive); in the assay on COLO 205 it was 15 µM (inactive); in the assay with UO-31, 18.5 µM (inactive); in the assay with SK-MEL-5, 11.9 µM (inactive); with SR, > 100 µM (inactive); in the assay on IGROV-1, 33.2 µM (inactive). Besides, the GI50 in the assay with PC-3 is 26.7 µM (inactive); in the assay on T47D it was 30.1 µM (inactive); in the assay on RPMI-8226, 17.3 µM (inactive); with HT-29, 21 µM (inactive); in the assay on MDA-MB-231, 20.7 µM (inactive); in the assay with LOX IMVI it was 33.1 µM (inactive). Besides, the GI50 was 20.3 µM (inactive) with SK-MEL-2; 32.7 µM (inactive) in the assay on 786-0; 23.9 µM (inactive) with SK-MEL-28; 24 µM (inactive) with OVCAR-8; 21.3 µM (inactive) in the assay on CAKI-1.

As for `CCCCCCCCCC[C@@H](O)[C@@H]1CC[C@@H]([C@@H]2CC[C@@H]([C@@H](O)CCCCCCCCCCC(O)CC3=CC(C)OC3=O)O2)O1` (stereo partly specified), the GI50 in the assay on COLO 205 is > 10 µM (inactive); in the assay with UO-31, 0.562 µM (active); in the assay on SK-MEL-5, 0.333 µM (active); with SR it was 1.4 µM (inactive); in the assay with IGROV-1, > 10 µM (inactive); with PC-3, 5.04 µM (inactive). For the same compound, the GI50 is 0.984 µM (active) with T47D; 1.26 µM (inactive) in the assay on RPMI-8226; > 10 µM (inactive) with HT-29; 2.32 µM (inactive) in the assay on MDA-MB-231; 2.69 µM (inactive) in the assay with RXF 393; 0.248 µM (active) with K562. Also, the results for the GI50 in the assay on LOX IMVI, with SK-MEL-28 and in the assay on OVCAR-8 were 1.05 µM (active), > 10 µM (inactive) and 4.43 µM (inactive), respectively.

On to `C[B@@-]1(c2ccc(C(F)(F)F)cc2)N[C@@H](Cc2ccccc2)C(=O)O1`, for which the GI50 in the assay with MDA-MB-435 was > 100 µM (inactive); in the assay on COLO 205, > 100 µM (inactive); in the assay with UO-31 it was 88.1 µM (inactive); in the assay on SK-MEL-5 it was > 100 µM (inactive); with SR it was > 100 µM (inactive); with IGROV-1 it was > 100 µM (inactive). Besides, the GI50 with PC-3, with T47D, in the assay with RPMI-8226, in the assay with HT-29, in the assay on MDA-MB-231 and in the assay on K562 was > 100 µM (inactive) in each case. The GI50 with LOX IMVI, in the assay with 786-0, in the assay with SK-MEL-28 and in the assay with OVCAR-8 was > 100 µM (inactive) throughout.

Consider `NC(CCC(=O)NC(CCC(=O)NO)C(=O)NCC(=O)O)C(=O)O` (stereo unspecified) (γGlu-Glu(NHOH)-Gly-OH; configuration not given here), for which the GI50 in the assay with MDA-MB-435, with COLO 205, in the assay on UO-31, in the assay on SK-MEL-5, with IGROV-1 and in the assay on PC-3 was > 100 µM (inactive) each time. The GI50 in the assay on T47D, in the assay with RPMI-8226, in the assay on HT-29, in the assay on MDA-MB-231, in the assay with RXF 393 and in the assay on K562 was > 100 µM (inactive) each time. Besides, the GI50 with LOX IMVI, in the assay with SK-MEL-2, in the assay with 786-0, with SK-MEL-28, in the assay with OVCAR-8 and in the assay with CAKI-1 was > 100 µM (inactive) each time.
